# Patent publication US10551384B2, “MTOR kinase mutations and methods of use thereof” (RUTGERS, THE STATE UNIVERSITY OF NEW JERSEY, priority 2016, dated 2020)
# Entries after “also recorded” stand apart in the source; their conditions may differ.
# Experiments:
# TOR2-mTOR L2185A mutant = assay: Yeast spotting assay for drug resistance, TOR2-mTOR L2185A; assay type: cell-based, S. cerevisiae; settings: 37° C., amphotericin B present (except OSI-027)
# From the text: (§1) FIGS. 4A-C. […] (FIG. 4A) Scheme of a yeast-based screen for drug-resistant mutations in mTOR kinase domain. mTOR kinase domain is amplified by error-prone PCR to generate randomized mutations, which is then recombined in frame into the TOR2-mTOR plasmid by gap-repair in tort-dg cells, and is selected on SC-leucine minus plates. Replica plating is then made onto SC-leucine plates containing DMSO or mTOR kinase inhibitor for selection of drug resistant clones. (FIG. 4B) tor2-dg cells expressing WT or mutant TOR2-mTOR were serially diluted by 10-fold and assayed for sensitivity to different mTOR kinase inhibitors in the presence of amphotericin B. Vector and TOR2 were used as controls. Drug resistant assay was performed at 37° C. in the presence of amphotericin B (except OSI-027). (FIG. 4C) Systematic mutational analysis of L2185 on drug resistance. tort-dg cells expressing WT or mutant TOR2-mTOR carrying all possible mutations at L2185 were serially diluted by 10-fold and tested for sensitivity to different mTOR kinase inhibitors at 37° C.
# (§2) To enhance yeast cell permeability, log phase W303 tort-dg cells were spread evenly on SD-Leu agarose plates. After drying, small sterile filter discs were placed on the surface and 5 μl of indicated mTOR inhibitors or DMSO were applied to each disc with or without adding 5 μl of amphotericin B (10 μM), miconazole (50 μM) or caspofungin (50 μM). Plates were incubated at 37° C. for 3 day. Drug resistance profiles of TOR2-mTOR mutant cells were determined by the spotting assay. For this assay, 10-fold serial dilutions of cells were spotted on SD-leu plates in the presence of indicated mTOR inhibitors with or without amphotericin B (200 nM) and incubated at 37° C. for 3 day.
# TOR2-mTOR L2185C mutant = assay: Yeast spotting assay for drug resistance, TOR2-mTOR L2185C; assay type: cell-based, S. cerevisiae; settings: 37° C., amphotericin B present (except OSI-027)
# From the text: as §1, §2
# [1] = system: mTORC1 and mTORC2 signaling in SW480 mTOR(L2185A) cells; assay: mTORC1/mTORC2 signaling immunoblot in SW480 cells carrying L2185A mutant mTOR; assay type: cell-based, human; settings: various concentrations, 1 hr, immunoblot of P-S6K, P-4E-BP1, P-AKT
# Procedure: (§3) (FIG. 5A) SW480 cells carrying homozygous WT mTOR or L2185A mutant alleles were treated with various concentrations of AZD8055, INK-128, OSI-027 and PP242 for 2 day. Growth of SW480 cells was measured by SRB assay. Data represent means±SD in three independent experiments. (FIG. 5B) SW480 cells carrying homozygous WT and L2185A mutant mTOR allele were treated with a single dose of AZD8055 (100 nM), INK-128 (100 nM), OSI-027 (6,000 nM), and PP242 (2,000 nM) for different times. Cell growth was measured by SRB assay. The drug carrier DMSO was used as a control. Data represent means±SD in three independent experiments. (FIG. 5C) SW480 cells carrying homozygous WT and L2185A mutant mTOR were treated with various concentrations of INK-128, OSI-027, AZD8055 and PP242 for 1 hr. The effect on the level of P-S6K, S6K, P-4E-BP1, 4EB-P1, P-AKT and AKT was analyzed by immunoblot. […] The growth of SW480 cells was measured by SRB assay. Data represent means±SD in three independent experiments.
# (§4) Antibodies against tubulin, S6K, phospho-S6K (Thr389), 4E-BP1, phospho-4E-BP1 (Thr37/46), Akt, phospho-Akt (Thr308), and phospho-Akt (Ser473) were purchased from Cell Signaling Technology. […] For drug sensitivity test, cancer cells were seeded in 96-well plates at a density of 2,000 cells per well. 24 hours later, different concentrations of mTOR inhibitors were added in quadruplicate. Cell growth was measured by the sulforhodamine B (SRB) assay as previously described (Vichai, V., and Kirtikara, K. (2006). Nature protocols 1, 1112-1116).
# [2] = system: SW480 colorectal cancer cells carrying L2185A mutant mTOR alleles; assay: SRB growth assay of SW480 cells carrying L2185A mutant mTOR; assay type: cell-based, human; settings: various concentrations, 2 day
# Procedure: as §3
# Cancer cell lines were maintained in DMEM or RPMI 1640, supplemented with 10% fetal bovine serum (Invitrogen) and 1% penicillin/streptomycin (Invitrogen). CRISPR/cas9 technology was used to engineer mutant mTOR allele in SW480 colorectal and H460 lung cancer cells. Briefly, The target sequence for mTOR, […] (SEQ ID NO: 3 was designed through the online tool at crispr.mit.edu, and cloned into pSPCas9(BB)-2A-GFP vector (PX458 in Addgene). Genomic mTOR mutation was engineered using a protocol as described (Ran, et al. (2013). Nature protocols 8, 2281-2308) and was confirmed by targeted sequencing.
# as §4
# TOR2-mTOR L2185G mutant = assay: Yeast spotting assay for drug resistance, TOR2-mTOR L2185G; assay type: cell-based, S. cerevisiae; settings: 37° C., with amphotericin B
# From the text: as §1, §2
structure (smiles),measurement,setting,value
CC(C)n1nc(-c2ccc3oc(N)nc3c2)c2c(N)ncnc21 [INK128],drug resistance/sensitivity of TOR2-mTOR L2185A mutant yeast,TOR2-mTOR L2185A mutant,confer resistance; also recorded: conferring resistance
same,drug resistance/sensitivity of TOR2-mTOR L2185C mutant yeast,TOR2-mTOR L2185C mutant,confer resistance; also recorded: conferring resistance
same,"drug resistance of mTORC1 and mTORC2 signaling, SW480 L2185A vs WT",[1],drug-resistant signaling by both mTORC1 and mTORC2
same,"drug resistance/sensitivity of cell growth, SW480 L2185A vs WT",[2],confers resistance
same,drug resistance of TOR2-mTOR L2185G mutant yeast,TOR2-mTOR L2185G mutant,moderately resistant
